Data from patent US20070087344A1, “Methods for characterizing signaling pathways and compounds that interact therewith” (BIOSEEK, INC., priority 2003, published 2007).
“Also recorded” adds a separate entry of the source. Read-outs that look alike come from different tables or passages of the source.

Experiments:
Type in all cases: cell-based, human
[1] = test system: HUVEC cell lines over-expressing TNF-alpha; assay: VCAM-1 expression (ELISA) in HUVEC over-expressing TNF-alpha
[2] = test system: HUVEC cell lines over-expressing IKBKB; assay: VCAM-1 expression (ELISA) in HUVEC over-expressing IKBKB
[3] = test system: HUVEC cell lines over-expressing RELA; assay: VCAM-1 expression (ELISA) in HUVEC over-expressing RELA
[4] = test system: RAS*, RAF* or MEK1* over-expressing cells; assay: Profiles induced by over-expression of RAS*, RAF* or MEK1* genes
From the text: The pathway information developed by practice of the methods of the present invention facilitates the in-depth characterization (mechanism-of-action studies) of chemical compounds. […] A high throughput approach can be used to test a compound against genes from known signaling pathways, as well as genes of unknown pathway origin.

[5] = test system: Endothelial cells over-expressing single genes from NFkB, PI3K/Akt, RAS/MAPK or JAK/STAT pathways; assay: Compound profiling in 20 gene over-expression assays (NFkB, PI3K/Akt, RAS/MAPK, JAK/STAT), pairwise Pearson correlation; conditions: DRB 10 micromolar, Apigenin 6 micromolar, 24 hours
Description: Endothelial cells expressing 16 individual genes from NFκB, RAS, PI3K/AKT and JAK/STAT (IFN-γ and IL-4) pathways were treated with compounds for 24 hours. Where indicated additional cytokines were added to cells to reveal activity of the over-expressed genes (e.g. AKT1/IL1 means that IL-1-beta was added to AKT-over-expressing cells). Parameters measured were VCAM-1 for NFκB, PI3K, and RAS/MAPK pathway genes, HLA-DR for JAK/STAT(IFNγ) pathway genes, and VCAM-1 (IL4/VCAM-1) and Eotaxin-3 (IL4/Eot3) for JAK/STAT(IL4) pathway. […] Statistically significant correlations (permutation method described further in the text and in Example 1B) in the table are shaded (dark grey for correlation coefficients in the range of 0.75 to 1, and light grey for the range of 0.55 to 0.75).
With a permutation technique, an average distribution of the correlation coefficients that will be obtained by chance is constructed and the values of the correlations that correspond to a required level of significance are obtained. The original similarity matrix is filtered using these values, thus providing a consistent way of identifying correlations coefficients with potential biological significance. This method also allows calculation of a false positive rate, providing the user with a way of balancing “hit rate” and stringency of correlation significance. […]

[6] = test system: MYD88 over-expressing endothelial cells; assay: Response to MYD88 over-expression in IL-1-beta-treated endothelial cells (VCAM-1, E-selectin); conditions: IL-1-beta-treated cells; MYD88 inhibits VCAM-1 and E-selectin expression
Description: (§1) A. Grouping Genes into Signal Transduction Pathways by Gene Over-Expression. Genes encoding key elements of pro-inflammatory pathways (IL-1, TNF-alpha, CD40, and IFN-gamma), the core NFkB pathway, the PI3K/Akt pathway, and the RAS/RAF/MEK pathway (see Table 2) were introduced into endothelial cells by retroviral transduction and allowed to express their encoded proteins for 48 hours, substantially as described in Example 1. The gene-modified endothelial cells were then subjected to 24 hour cytokine stimulation.
(§2) Gene over-expression generally results in activation of the target pathway (in contrast to most pharmaceutical drugs, which are typically inhibitors).
(§3) To explore this observation further, we re-examined the response to MYD88 and genes encoding representative members of the RAS/MAPK and NFkB pathways (RAS* and TNFRSF1A, respectively) in all individual cell systems. […] By contrast, the response induced by MYD88 in IL-1-beta-treated cells was similar to that induced by RAS*, the main effect being to inhibit expression of the adhesion molecules VCAM-1 and E-selectin. Over-expression of MYD88 thus appears to stimulate the RAS/MAPK pathway under these conditions. […] MYD88 (and IRAK1) are known to be involved in IL-1-induced but not in TNF-induced signaling, and PD098059 indeed had no effect on VCAM-1 expression in TNF-alpha-treated cells. […]

[7] = test system: RAS* over-expressing endothelial cells; assay: Response to RAS* over-expression in IL-1-beta-treated endothelial cells (VCAM-1, E-selectin); conditions: IL-1-beta-treated cells; RAS* inhibits VCAM-1 and E-selectin expression
Description: as §1, §2, §3

TNF-alpha-treated cells = assay: VCAM-1 expression in TNF-alpha-treated endothelial cells
From the text: as §2
To explore this observation further, we re-examined the response to MYD88 and genes encoding representative members of the RAS/MAPK and NFkB pathways (RAS* and TNFRSF1A, respectively) in all individual cell systems. […] By contrast, the response induced by MYD88 in IL-1-beta-treated cells was similar to that induced by RAS*, the main effect being to inhibit expression of the adhesion molecules VCAM-1 and E-selectin. Over-expression of MYD88 thus appears to stimulate the RAS/MAPK pathway under these conditions. […] MYD88 (and IRAK1) are known to be involved in IL-1-induced but not in TNF-induced signaling, and PD098059 indeed had no effect on VCAM-1 expression in TNF-alpha-treated cells. Multi-system analysis can thus detect novel functional interrelationships between different signaling pathways.

[8] = test system: HUVEC stimulated with IL-1-beta, TNF-alpha and IFN-gamma; assay: Functional profiles in HUVEC stimulated with IL-1-beta, TNF-alpha and IFN-gamma compared with siRNA knock-down profiles; conditions: E-selectin, HLA-DR, ICAM-1, IL-8, MCP-1, MIG, VCAM-1 readouts
From the text: The cells used to generate functional profiles were HUVEC stimulated with a mixture of cytokines IL-1beta+TNF-alpha+IFN-gamma, and the readout parameters were E-selectin, HLA-DR, ICAM-1, IL-8, MCP-1, MIG and VCAM-1. Statistical analysis (permutation method) and generation of a two-dimensional map was done as described above.
Early passage (<5) exponentially growing HUVEC cells were harvested, washed once with PBS, and resuspended at 2×10^6 cells in 100 microliter Nucelofection solution (Human Umbilical Vein Endothelial Cell Nucleofector Kit, AMAXA, Koeln, Germany). SiRNA (15 microliter of a 20 micromolar solution; Dharmacon, Lafayette, Colo.) was added to the cell suspension, transferred into an electroporation cuvette, and electroporated using the U-1 setting on an AMAXA Nucleofector device. The cell suspension was then transferred into a separate tube containing 3 ml of complete EGM-2 media (Clonetics), incubated at 37° C. for 10 minutes, and plated into 96-well microtiter plates (25,000 cells/well) for cytokine activation and ELISA analysis as described above. Statistical analyses and pairwise correlation analyses of functional profiles obtained by gene knock-down were performed in the manner as described for the gene-over-expression approach described above.

SMILES: CC(C)Cc1ccc(C(C)C(=O)O)cc1 (stereo not shown) [ibuprofen]
- Inhibition of TNF-alpha induced VCAM-1 expression [1]: inhibits TNF-alpha and IKBKB genes
- Inhibition of IKBKB induced VCAM-1 expression [2]: inhibits TNF-alpha and IKBKB genes
- Inhibition of RELA induced VCAM-1 expression [3]: not in RELA over-expressing cells

SMILES: CC(Cc1ccc(O)c(O)c1)C(C)Cc1ccc(O)c(O)c1 (stereo not shown) [NDGA, nordihydroguaiaretic acid]
- Inhibition of IKBKB induced VCAM-1 expression [2]: not IKBKB or RELA induced VCAM-1 expression; also recorded: inhibits only the TNF-alpha gene
- Inhibition of RELA induced VCAM-1 expression [3]: not IKBKB or RELA induced VCAM-1 expression; also recorded: inhibits only the TNF-alpha gene

SMILES: N#CC(=C(/N)Sc1ccccc1N)/C(C#N)=C(/N)Sc1ccccc1N [Uo126]
- Effect on profiles induced by RAS*, RAF* or MEK1* genes [4]: affected

SMILES: O=c1cc(-c2ccc(O)cc2)oc2cc(O)cc(O)c12 [apigenin]
- Overlap of functional profile with those of 17-MG and beta-zearalenol [5]: only in the JAK/STAT portion of the overall profile

SMILES: OC[C@H]1O[C@@H](n2cnc3cc(Cl)c(Cl)cc32)[C@H](O)[C@@H]1O [DRB]
- Overlap of functional profile with those of 17-MG and beta-zearalenol [5]: only in the JAK/STAT portion of the overall profile

SMILES: COc1cccc(-c2cc(=O)c3ccccc3o2)c1N [PD098059]
- Effect on the response induced by MYD88 over-expression [6]: reversed the effect
- Effect on the response induced by RAS* over-expression [7]: reversed the effect
- Effect on VCAM-1 expression (TNF-alpha-treated cells): no effect
- Effect on profiles induced by RAS*, RAF* or MEK1* genes ([4]; gene over-expressing cells): affected

SMILES: Oc1ccc(-c2nc(-c3ccncc3)c(-c3ccc(F)cc3)[nH]2)cc1 [SB202190]
- Similarity of functional profile to siRNA-mediated dual knock-down of MEK3 and 6 [8]: similar
